Here are results for six molecules from ChEMBL document CHEMBL4828773, “Novel HDAC1 and HDAC2 Inhibitors for Treating Diseases” (ACS Med Chem Lett, 2021).

For one test, the target named is Histone deacetylase 1 (Homo sapiens, UniProt Q13547). Kind of test: Inhibition of HDAC1 (unknown origin) preincubated for 10 mins followed by tripeptide substrate addition and measured after 60 mins by fluorescence microplate reader assay.
The next test deals with Histone deacetylase 2 (Homo sapiens, UniProt Q92769). Description: Inhibition of human HDAC2 preincubated for 10 mins followed by tripeptide substrate addition and measured after 60 mins by fluorescence microplate reader assay.
Sequence of Histone deacetylase 2 (Q92769 whole entry): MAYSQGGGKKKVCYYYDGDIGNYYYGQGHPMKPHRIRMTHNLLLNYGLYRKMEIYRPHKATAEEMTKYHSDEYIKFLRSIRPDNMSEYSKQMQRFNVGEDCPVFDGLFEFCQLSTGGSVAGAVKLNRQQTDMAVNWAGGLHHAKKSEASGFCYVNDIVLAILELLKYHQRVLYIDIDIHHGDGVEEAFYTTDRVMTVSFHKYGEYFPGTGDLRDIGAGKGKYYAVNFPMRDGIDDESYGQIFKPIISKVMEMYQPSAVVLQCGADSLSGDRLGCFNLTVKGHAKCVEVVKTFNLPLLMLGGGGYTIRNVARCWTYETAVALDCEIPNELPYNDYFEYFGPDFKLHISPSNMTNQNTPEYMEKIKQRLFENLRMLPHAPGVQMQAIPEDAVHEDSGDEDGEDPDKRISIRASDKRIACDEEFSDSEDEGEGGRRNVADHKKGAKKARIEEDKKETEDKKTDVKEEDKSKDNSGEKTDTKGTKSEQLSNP

Sequence of Histone deacetylase 1 (Q13547 whole entry): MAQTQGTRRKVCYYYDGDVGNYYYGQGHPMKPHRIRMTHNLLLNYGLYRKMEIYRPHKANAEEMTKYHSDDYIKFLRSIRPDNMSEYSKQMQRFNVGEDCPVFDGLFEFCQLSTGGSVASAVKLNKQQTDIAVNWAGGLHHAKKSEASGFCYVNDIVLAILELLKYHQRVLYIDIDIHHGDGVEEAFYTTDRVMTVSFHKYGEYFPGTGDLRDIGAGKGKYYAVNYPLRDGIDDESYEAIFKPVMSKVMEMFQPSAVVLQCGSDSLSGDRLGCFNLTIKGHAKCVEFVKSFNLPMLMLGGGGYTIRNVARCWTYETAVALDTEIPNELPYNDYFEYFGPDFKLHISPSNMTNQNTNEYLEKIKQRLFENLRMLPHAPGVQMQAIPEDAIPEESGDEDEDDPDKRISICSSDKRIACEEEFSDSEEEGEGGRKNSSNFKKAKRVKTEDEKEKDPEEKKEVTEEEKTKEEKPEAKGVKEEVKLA

On to `CN1C(=O)Cc2cc(C(=O)Nc3cc(-c4cccs4)ccc3N)ccc21`, for which the IC50 stood at 5 nM on Histone deacetylase 1 and 10 nM on Histone deacetylase 2.

On to `Nc1ccc(-c2cccs2)cc1NC(=O)c1ccc2c(c1)CC(=O)N2CCN1CCOCC1`, for which the figures for the IC50 against Histone deacetylase 1 and on Histone deacetylase 2 were 1 nM and 5 nM, respectively.

As for `Nc1ccc(-c2ccccc2)cc1NC(=O)c1ccc2c(c1)ncn2CCN1CCOCC1`, the figures for the IC50 at Histone deacetylase 1 and against Histone deacetylase 2 were 1 nM and 10 nM, respectively.

In turn, `CN(C)CCNc1ccc2cc(C(=O)Nc3cc(-c4cccs4)ccc3N)ncc2c1` gave an IC50 against Histone deacetylase 2 of 5 nM.

As to `Nc1ccc(-c2cccs2)cc1NC(=O)c1ccc2c(c1)CC(=O)N2CCCN1CCOCC1`, the values for the IC50 against Histone deacetylase 1 and at Histone deacetylase 2 were 1 nM and 5 nM, respectively.

Regarding `CN(C)CCN(C)c1ccc2cc(C(=O)Nc3cc(-c4cccs4)ccc3N)cnc2c1`, at Histone deacetylase 2, the IC50 turned out to be 15 nM.

Broadly, the IC50 is the point on the concentration scale where inhibition reaches its midpoint. A higher IC50 goes with weaker potency in that assay.
